Measurements from US20100310541A1, “Compositions and Methods for Reducing the Toxicity of Certain Toxins” (IRONWOOD PHARMACEUTICALS, INC., priority 2007, published 2010).
Entries after “also recorded” stand apart in the source; their conditions may differ.

Biological target: Escherichia coli heat stable enterotoxin (STa; SEQ ID NO: 1) (Escherichia coli, UniProt P07965)
Assay type: biochemical
Settings: pH 8

O[C@H](CS)[C@H](O)CS (racemic) [DTT, dithiothreitol]
effect on SEQ ID NO:1 (LC/MS, FIG. 3): no visible effect
reduction of SEQ ID NO:1 disulfide bonds (FIG. 5): a small amount of fully reduced peptide; also recorded: complete reduction
reduction of native SEQ ID NO:1 based on peak area (FIG. 4): 47%
